According to patent US20220218641A1 (Concert Pharmaceuticals, Inc., priority 2019, published 2022):

Columns and labels:
[1] = target: T1, human NMDAR subunits GluN1 and GluN2A (Homo sapiens, UniProt Q05586); test: Automated patch clamp (ScreenPatch) NMDA receptor activation in HEK293 cells; assay type: cell-based; conditions: 0.003 to 10 μM
T1 construct: expressed in transfected cells; host or cells: HEK293
Experimental: Peak current and steady state current were measured. The activity at the NMDA receptor was indistinguishable for the two compounds.

[2] = Nephrotoxicity of Compound 100 and non-deuterated D-serine at 150 mg/kg PO (Example 3); assay type: in vivo, male Sprague-Dawley Rats
Source text: (§1) The pharmacokinetic profile of Compound 100 was investigated in male Sprague-Dawley rats compared with that of non-deuterated D-serine. […] Plasma was collected and analyzed for Compound 100 and non-deuterated D-Serine. Additional blood was collected and analyzed for the full clinical chemistry profile.

[3] = Pharmacokinetic profile of Compound 100 vs non-deuterated D-serine, single 150 mg/kg PO dose (Example 3); assay type: in vivo, male Sprague-Dawley rats
Source text: as §1

[4] = Pharmacokinetics of deuterated and non-deuterated D-serine, PO 10 mg/kg (Example 5); assay type: in vivo, male Sprague Dawley rats
Experimental: Three rats were used for each group. Blood was collected at the following time points: for IV dosing: pre-dose, 0.05, 0.167, 0.5, 1, 2, 4, 6, 8 and 12 hours post-dose; for PO dosing: pre-dose, 0.25, 0.5, 1, 2, 4, 6, 8 and 12 hours post-dose PO. Urine was collected at pre-dose (minimum 12 hours), 0-6, 6-12 and 12-24 hours. Plasma samples were analyzed and quantified for dosed compound LC-MS/MS.

[5] = Nephrotoxicity comparison, dose escalation 150 mg/kg to 750 mg/kg PO (Example 3, FIGS. 7-10); assay type: in vivo, rats; conditions: for BUN / Creatinine: PO doses from 150 mg/kg to 750 mg/kg
[6] = Nephrotoxicity dose response of non-deuterated D-serine, 30-300 mg/kg PO (Example 4); assay type: in vivo, male Sprague-Dawley Rats; conditions: 24 hr samples at the 150 and 300 mg/kg doses, compared to control and reference values
Source text: (§2) The pharmacokinetic profile of non-deuterated D-serine was investigated in male Sprague-Dawley rats. […] Plasma was collected and analyzed for the non-deuterated D-serine. Additional blood was collected and analyzed for the full clinical chemistry profile.

[7] = Nephrotoxicity of non-deuterated D-serine at 300 mg/kg PO: clinical chemistry and urine (Example 2); assay type: in vivo, Male Sprague-Dawley Rats
Experimental: The hippocampus, cortex and plasma were collected and analyzed. Additional blood was collected and were analyzed for the full clinical chemistry profile. Urine was also collected and examined for glucose and total protein. […] The mean plasma, hippocampus, and cortex concentration at 1 hour are 19200 ng/mL, 674 ng/g, and 754 ng/g; respectively. The mean plasma, hippocampus, and cortex concentrations at 8 hours were 11250 ng/mL, 17725 ng/g, and 11875 ng/g, respectively. […] Blood urea nitrogen and creatinine levels were elevated.

[8] = Pharmacokinetics dose response of non-deuterated D-serine, 30-300 mg/kg PO (Example 4); assay type: in vivo, male Sprague-Dawley rats
Source text: as §2

[9] = dose escalation 150 mg/kg to 750 mg/kg
[10] = serum, D-serine at 24 hr, Compound 100 at 4, 8 and 24 hours

## [2H][C@@](N)(CO)C(=O)O [Compound 100, (2R)-2-amino-2-deutero-3-hydroxy-propanoic acid]
[1]
  Activity at the NMDA receptor (peak current and steady state current): indistinguishable
[2]
  Levels of biomarkers of nephrotoxicity: did not increase
[3]
  Cmax and AUCinf compared with non-deuterated D-serine: similar
[4]
  Tmax compared with non-deuterated D-serine: similar
[5]
  BUN: minimal changes
  Creatinine: minimal changes
[5]; [9]
  Exposure as measured by AUC and Cmax, compared with non-deuterated D-serine: greater
  Gross signs of nephrotoxicity: not

## N[C@H](CO)C(=O)O [Non-deuterated D-Serine, D-serine]
[6]
  Creatine level: Elevated
  Gamma glutamyl transferase (GGT) level: Elevated
  Urea nitrogen level: Elevated
[1]
  Activity at the NMDA receptor (peak current and steady state current): indistinguishable
[7]
  Blood urea nitrogen level: elevated
  Creatinine level: elevated
  Glucose in urine: observed
[2]
  Levels of biomarkers of nephrotoxicity: caused an increase
[2]; serum, D-serine at 8 hr and 24 hr, Compound 100 at 4, 8 and 24 hours
  Blood urea nitrogen (BUN) level: Elevated
[2]; [10]
  Creatinine level: Elevated
  Gamma glutamyl transferase (GGT) level: Elevated
[8]; 75 mg/kg PO (2.5× dose)
  AUCinf, multiple of the 30 mg/kg value: 2.9×
  Cmax, multiple of the 30 mg/kg value: 2.2×
[8]; 100 mg/kg PO (3.3× dose)
  AUCinf, multiple of the 30 mg/kg value: 4.9×
  Cmax, multiple of the 30 mg/kg value: 4.0×
[8]; 150 mg/kg PO (5× dose)
  AUCinf, multiple of the 30 mg/kg value: 6.9×
  Cmax, multiple of the 30 mg/kg value: 7.4×
[8]; 300 mg/kg PO (10× dose)
  AUCinf, multiple of the 30 mg/kg value: 18×
  Cmax, multiple of the 30 mg/kg value: 10.7×
[8]; plasma, 150 mg/kg PO
  Tmax: 18 min
[5]
  BUN: increasingly elevated levels
  Creatinine: increasingly elevated levels
[5]; [9]
  Gross signs of nephrotoxicity: observed
